Test results published in patent publication US20180369195A1, “COMBINATION THERAPY FOR TREATMENT OF MELANOMA” (The Regents of the University of California, priority 2015, published 2018).

Experiments:
[1] = system: MITF-M transcript; assay: RT-PCR analysis of MITF-M transcripts; format: cell-based, human; details: for MITF-M transcript levels: 200 μM I3C, 72 hour time course
Procedure: Total RNA was extracted from harvested cells using the RNeasy extraction kit for mammalian cells (obtained from Qiagen, Hercules, Calif.) and spectrophotometrically quantified by absorbance at 260 nm. Reverse transcription (RT) reactions were carried out using RT-MMLV reverse transcriptase (Invitrogen, Eugene, Oreg.) and the cDNA was used for polymerase chain reaction (PCR) reactions using 10 pM of the following primers: MITF-M forward 5′ CCGTCTCTCACTGGATTGGT 3′ (SEQ ID NO:1), MITF-M Reverse 5′ TACTTGGTGGGGTTTTCGAG 3′ (SEQ ID NO:2) GAPDH forward, […] (SEQ ID NO:3) and reverse, […] (SEQ ID NO:4). PCR conditions were as follows: 30 s at 94° C., 30 s at 55° C. and 30 s at 72° C. for 28 cycles. PCR products were electrophoretically fractionated in 1.5% agarose gels containing 0.01% Gel Red (Biotium) for DNA staining along with 1 kb plus DNA ladder (Thermo Scientific) and further visualized by a UV transilluminator.

[2] = system: normal melanocytes; assay: Flow cytometry analysis of DNA content, normal melanocytes; format: cell-based; details: varying doses of 1-benzyl I3C, 48 hours
[3] = system: canonical Wnt signaling; assay: TOP Flash Wnt reporter assay in G361 cells; format: cell-based, human
Procedure: Murine fibroblast L cells stably transfected with a construct expressing high levels of human Wnt3A were used. The cells were grown in DMEM containing 4.5 g/L Glucose, 114 mg/L Sodium Pyruvate, and 2 mM L-glutamine, supplemented with 10% fetal bovine serum (Gemini Bio Products), 2 mM L-glutamine, and 2.5 ml of 10,000 U/ml penicillin/streptomycin mixture (Gibco, Life Technologies). Conditioned media was harvested in two batches, once during routine media change after 2 days of seeding the cells and once more when the plates were confluent. The cells were trypsinized as described earlier using 0.025% trypsin (Lonza) and pelleting the cells by a spin at 4000 rpm for 5 minutes and aspirating and filtering the supernatant through a 0.2 micron filter to obtain the conditioned media. The two batches of conditioned media were mixed 1:1 and stored in aliquots at −80° C. for future use.
The TOPflash/FOPflash (Millipore) reporter assay was performed on G361 cells to assess the effect of 1-benzyl I3C on β-catenin driven Wnt transcriptional activity. TOPflash is a TCF/LEF responsive luciferase construct encoding the firefly luciferase reporter under the control of a minimal (m) CMV promoter and tandem repeats of a TCF/LEF transcriptional response element (TRE). FOPflash is a similar construct with the LEF-1 binding site mutated which serves as the negative control. G361 cells were cultured to approximately 80% confluency in a 6 well clear bottom plate (Nunc). The TOPflash/FOPflash construct was transfected using Superfect Transfection Reagent (Qiagen.) according to the manufactures instructions. […] 20 μl of supernatant from each sample was combined with 100 μl luciferase substrate (Promega) and emitted fluorescence was measured using luminometer, Lumat LB 9507 (EG&G Berthold) and the relative light units (RLU) were recorded. The RLU/μg for each sample was calculated by dividing the data obtained with their specific protein concentration determined by a Bradford assay using 1× BioRad Protein Assay reagent and measuring O.D at 595 nm. […]

[4] = system: SK-MEL-2 cells; assay: Flow cytometry analysis of DNA content, SK-MEL-2; format: cell-based, human; details: all tested concentrations of I3C
Procedure: (§1) Melanoma cells were treated with the indicated concentrations of 1-benzyl […] in triplicates every 24 hours and harvested at the end of 24, 48 or 72 hours for cell cycle analysis. The DNA content of propidium iodide stained nuclei from harvested cells were determined by flow cytometry. Briefly, cells were hypotonically lysed in […] of DNA staining solution (0.5 mg/mL propidium iodide, 0.1% sodium citrate, and 0.05% Triton-X 100). Emitted fluorescence from the nuclear of wavelengths more than 585 nm was measured with a Coulter Elite instrument with laser output adjusted to deliver 15 mW at 488 nm. Ten thousand nuclei were analyzed from each sample at a rate of 300-500 nuclei/second. The percentage of cells within the G1, S, and G2/M phases of the cell cycle were determined by analysis with the Multicycle computer program provided by Phoenix Flow Systems in the Cancer Research Laboratory Microchemical Facility of the University of California, Berkeley.

[5] = system: phosphorylated MEK; assay: Western blot of phosphorylated MEK; format: cell-based, human; details: 200 μM I3C, 72 hour time course
Procedure: Western Blot analyses of samples electrophoretically fractionated on 12% acrylamide gels were carried out as previously described (Wagle et al., J. Clin. Oncol. 2011. 29(22):3085-3096; Nguyen et al., Chem. Biol. Interact. 2010. 186(3):255-266). […] The western blots employed the following primary antibodies: mouse anti-MITF-M (Thermo-scientific), mouse anti-HSP 90 (BD Biosciences), mouse anti-CDK2, rabbit anti-CDK4, rabbit anti-CDK-6, mouse anti-rabbit BRAF, goat anti-LEF-1, rabbit anti-AXIN, mouse anti-BCL2, (Santa Cruz), rabbit anti-P21, mouse anti-Cyclin D1, rabbit anti-MEK-p, rabbit anti-MEK1/2, rabbit anti-GSK3β rabbit anti-LRP6, rabbit anti-LRP6-phospho (Cell signaling), mouse anti-β-catenin (Invitrogen).

[6] = system: cultured human cancer cells; details: Wong et al. 1997; cited from earlier work
[7] = molecular target: T1, wild type BRAF (Homo sapiens, UniProt P15056); assay: In vitro BRAF kinase assay, in-vitro treated wild type BRAF from SK-MEL-2 cells; format: biochemical; details: pre-incubated 2 hours; 200 μM or 400 μM I3C, 10 μM Vemurafenib
T1 construct: Wild type BRAF was immunoprecipitated from SK-MEL-2 melanoma cells; endogenous in cells; host or cells: SK-MEL-2 human melanoma cells (ATCC)
T1 sequence (P15056 whole entry): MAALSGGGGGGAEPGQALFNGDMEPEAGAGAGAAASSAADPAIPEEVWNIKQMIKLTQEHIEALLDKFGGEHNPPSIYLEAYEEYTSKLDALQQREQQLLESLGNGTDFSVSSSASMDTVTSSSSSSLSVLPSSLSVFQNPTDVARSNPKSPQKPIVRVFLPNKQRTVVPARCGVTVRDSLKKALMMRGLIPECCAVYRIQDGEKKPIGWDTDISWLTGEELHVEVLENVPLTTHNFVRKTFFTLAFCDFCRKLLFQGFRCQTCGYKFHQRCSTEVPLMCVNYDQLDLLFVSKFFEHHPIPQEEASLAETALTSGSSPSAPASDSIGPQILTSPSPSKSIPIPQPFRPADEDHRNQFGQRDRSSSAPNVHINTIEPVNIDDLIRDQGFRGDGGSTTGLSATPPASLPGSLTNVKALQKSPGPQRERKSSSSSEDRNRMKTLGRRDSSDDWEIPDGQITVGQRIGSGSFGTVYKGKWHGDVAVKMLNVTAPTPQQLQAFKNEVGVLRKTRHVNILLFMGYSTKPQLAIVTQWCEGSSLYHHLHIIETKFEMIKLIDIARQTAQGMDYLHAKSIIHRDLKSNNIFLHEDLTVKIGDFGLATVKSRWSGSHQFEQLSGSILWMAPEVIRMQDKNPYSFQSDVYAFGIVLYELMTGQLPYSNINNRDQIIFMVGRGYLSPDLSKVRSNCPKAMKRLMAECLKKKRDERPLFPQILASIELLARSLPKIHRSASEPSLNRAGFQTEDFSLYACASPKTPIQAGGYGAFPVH
Procedure: BRAF was pulled down from the cell lysates using anti-BRAF antibodies bound to protein G-coupled Sepharose beads, while IgG was used as a negative control. Post-immunoprecipitation supernatants were probed with anti BRAF antibody by western blots to determine pull-down efficiency. […] The reactions were terminated by adding 4× sodium dodecyl sulfate (SDS) sample buffer and boiling the mixture at 100° C. for 5 min. The samples were then electrophoresed, immunoblotted and probed for relative protein levels of phosphorylated MEK and total MEK to assess the kinase activity of the immunoprecipitated BRAF.

[8] = system: G361 cells; assay: Flow cytometry analysis of DNA content, G361; format: cell-based, human; details: maximal dose of 200 μM I3C
Procedure: as §1

[9] = system: SK-MEL-24 cells; assay: CCK-8 proliferation assay, SK-MEL-24; format: cell-based, human; details: 200 μM I3C, 72 hours; wild type BRAF
Procedure: Subsequently inhibition of proliferation was assessed using Cell counting Kit-8 (Dojindo) as per the protocol in the user's manual. Briefly, 50 μl of the CCK-8 solution was added to each well along with 450 μl media and incubated for 2-3 hours. The absorbance was read at 450 nm and % inhibition was calculated for each condition standardizing DMSO to zero using the formula: [(100-Value of treatment/Value of DMSO treated control)×100]

wild type BRAF enzymatic activity, direct in vitro incubation [7]	SMILES	MITF-M transcript level ([1]; G-361, DM738, SK-MEL-2 cells, 1-benzyl I3C)	G1 cell cycle arrest [2]	Wnt signaling (TOP luciferase activity) ([3]; G361 cells in Wnt conditioned media, 1-benzyl I3C 24 hours)	1-benzyl I3C induced inhibition of luciferase activity, constitutively active LRP6 transfected cells ([3]; G361 cells, 1-benzyl I3C 24 hours)	Wnt signaling (luciferase activity), wild-type vector transfected cells ([3]; G361 cells, 1-benzyl I3C 24 hours vs vehicle)	G1 cell cycle arrest [4]	phosphorylated MEK levels ([5]; G-361 and DM738 cells)	phosphorylated MEK levels ([5]; SK-MEL-2 cells)	MITF-M transcript levels ([1]; G-361 and DM738 cells)	MITF-M transcript levels ([1]; SK-MEL-2 cells)	optimal concentration for the anti-proliferative effect [6]	G1 cell cycle arrest [8]	sensitivity to anti-proliferative effects [9]
	OCc1cn(Cc2ccccc2)c2ccccc12 [1-benzyl I3C, 1-benzyl indole-3-carbinol]	concomitant inhibition of MITF-M transcript level	no comparable effect on normal melanocytes	Wnt signaling was significantly attenuated	significantly rescued	significantly inhibited the Wnt signaling								
no effect	OCc1c[nH]c2ccccc12 [I3C, indole-3-carbinol]						remained in a rapidly proliferating state	strongly down regulated	no effect	strongly down regulated MITF-M transcript levels	modest increase in MITF-M transcript levels	200 µM	significant G1 cell cycle arrest	significantly less sensitive
